Measurements published in patent publication US11332438B2, “Creatine prodrugs, compositions and methods of use thereof” (Ultragenyx Pharmaceutical Inc., priority 2017, dated 2022).

Legend:
[1] = biological target: T1, recombinant human FAAH enzyme (rFAAH) (Homo sapiens, UniProt O00519); assay: Direct prodrug cleavage with recombinant human FAAH enzyme (rFAAH): d3-Cr release and d3-Crn cyclization; format: biochemical; conditions: 200 μM prodrug, 3 h; result in words
T1 sequence (O00519 1-579): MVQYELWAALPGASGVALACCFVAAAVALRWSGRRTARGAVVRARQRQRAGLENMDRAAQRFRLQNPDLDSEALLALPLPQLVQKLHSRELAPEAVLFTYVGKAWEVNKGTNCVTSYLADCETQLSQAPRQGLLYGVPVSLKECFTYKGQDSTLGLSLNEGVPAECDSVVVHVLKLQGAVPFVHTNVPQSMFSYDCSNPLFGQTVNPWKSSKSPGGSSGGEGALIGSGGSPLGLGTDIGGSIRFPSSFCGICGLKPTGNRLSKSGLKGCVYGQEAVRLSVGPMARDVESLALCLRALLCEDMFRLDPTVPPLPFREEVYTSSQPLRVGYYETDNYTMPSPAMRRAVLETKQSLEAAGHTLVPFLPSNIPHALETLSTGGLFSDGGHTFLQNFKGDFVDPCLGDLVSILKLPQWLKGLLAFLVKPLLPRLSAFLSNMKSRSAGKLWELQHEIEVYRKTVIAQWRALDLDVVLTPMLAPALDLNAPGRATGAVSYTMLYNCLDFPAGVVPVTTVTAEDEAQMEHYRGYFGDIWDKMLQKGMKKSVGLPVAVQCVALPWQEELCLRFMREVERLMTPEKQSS
Protocol: For assessment of the ability of prodrugs to release creatine, and to release creatine preferentially to unwanted cyclization to creatinine, d3-labeled (deuterium labeled methyl group) prodrugs are incubated with brain homogenates (e.g., mouse, human) specially prepared to preserve FAAH activity or with rFAAH for direct cleavage study. The use of d3-labelled prodrugs is essential in order to distinguish prodrug-derived creatine (d3-creatine) from high concentrations of endogenous (non-labeled) creatine. […] Prodrugs are tested at final concentrations of 20 μM and 200 μM. Approximately 3-4 mg of homogenate is used for each reaction. Co-factor (NADPH) is included at a final concentration of 1 mM. FAAH activity is confirmed by conversion of 7-amino-4-methyl Coumarin-Arachidonamide to 7-amino-4-methyl Coumarin by fluorescent assay. Negative controls include incubations without brain homogenate/rFAAH (but with NADPH) or 65° C. heat inactivated brain homogenate/rFAAH to assess non-enzymatic prodrug cleavage under the conditions of the assay and FAAH inhibitor […] at the concentration of 1 μM. Prodrug incubations are prepared by addition of 8 μL of prodrug stock solution (500 or 5000 μM in DMSO or DMSO/methanol) to assay buffered, followed by addition of brain homogenate/rFAAH. […] The samples are centrifuged at 15890×g for 10 minutes at 4° C., followed by transfer of the supernatants for storage at −20° C. pending LC-MS/MS analysis. Sample supernatants are analyzed by LC-MS/MS for determination of d3-prodrug, d3-creatine and d3-creatinine levels.
Deuterated creatine prodrugs were tested in 3 different in vitro assays to assess d3-creatine (d3-Cr) release and cyclization to form d3-creatinine (d3-Crn). These assays were 1) direct cleavage with recombinant human FAAH enzyme (rFAAH), 2) cleavage in mouse brain homogenates (MBH), and 3) human brain homogenates (HBH).
Creatine prodrug cleavage efficiency was determined by percentage of net d3-Cr release in μM (positive reaction subtracted from negative control of no brain homogenate/rFAAH or inactivated brain homogenate/rFAAH) over nominal input concentration of 200 μM prodrug at 3 h. Propensity for creatinine cyclization was determined by percentage of d3-Crn generated in μM in positive reaction over nominal input concentration of 200 μM prodrug at 3 h.

ARPE-19 cells = assay: Creatine prodrug uptake and d3-creatine release in ARPE-19 cells (Table 4A); format: cell-based, human; conditions: 50 μM, 6 h, cytosol fraction, corrected for total protein
Protocol: At the end of the incubation, supernatant will be collected from each well to assess prodrug recovery. Cells are then washed 3× with PBS. Plates, prodrugs in supernatant, prodrugs in serum-free medium are stored at −80° C. until harvest (within 5 days). On the day of extraction, 130 uL of lysis buffer (10 mM Tris pH 7.4) with EDTA-free protease inhibitors is added to each well and cells are removed using a cell scraper. Lysates are further homogenized using a handheld pestle and then centrifuged at 16,000 g, […], for 10 minutes to collect cytosol fraction. Pellets will be stored at −80° C. until further analysis. A 4× volume of stop solution (80% ACN/20% water) will be added to the cytosol fraction, supernatant and medium. Samples will be centrifuged at 15,890 g (13,000 rpm) at 4° C. for 10 mins. Supernatant will be collected and stored at −80° C. within 5 days prior to LC-MS/MS analysis. Dosing solutions for each prodrug (10 μM) will be assayed to verify concentration. Cells alone with vehicle will serve as controls to assess background signal for LC-MS/MS. Two independent runs of experiment will be conducted.
Nine fatty acid amide creatine prodrugs were tested in human ARPE-19 cells to assess prodrug uptake and d3-Cr release inside the cells. 50 μM of prodrug was incubated in culture medium with the cells and the cells were harvested at 6 h. Quantitation of prodrugs, d3-Cr (d3-creatine) and d3-Cm (d3-creatinine) in the cytosol fraction was corrected for total protein concentration.

[2] = Prodrug cleavage in human brain homogenates (HBH): d3-Cr release and d3-Crn cyclization; format: in vitro ADME; conditions: in vitro cleavage assays (Table 3A)
How it was run: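 d3-labelled prodrugs (20 and 200 μM final) incubated with FAAH-preserving human brain homogenate (~3-4 mg) or rFAAH plus 1 mM NADPH; controls without enzyme, heat-inactivated enzyme, or 1 μM FAAH inhibitor […]. LC-MS/MS of d3-Cr and d3-Crn at 3 h, each expressed as percent of 200 μM input, net of control for d3-Cr.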

[3] = In vivo IV dosing in CrT KO mice: prodrug, d3-Cr and d3-Crn in brain (Table 5); conditions: CrT KO mouse brain, BQL prodrug = 41.2 ng/mL
How it was run: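 CrT KO mice received prodrugs by IV injection at 10, 15 or 25 mg/kg. Brains were collected, flash frozen and homogenized in 100 mM KPI buffer with anti-proteases. Prodrug, d3-Cr and d3-Crn were quantified by LC-MS/MS and expressed as brain concentration (macrocycles) or AUC over time (linear prodrugs).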

| SMILES | Prodrug Cleavage rFAAH d3-Crn release (yes/no) [1] | Prodrug Cleavage rFAAH net d3-Cr release (yes/no) [1] | prodrug, Cellular Uptake (ARPE-19 cells) | d3-Crn (creatinine) cyclization in vitro (in words) [2] | d3-Crn (creatinine) cyclization in vitro (in words) ([2]; listed as Compound 8) | AUClast prodrug in the brain ([3]; IV 15 mg/kg) | AUClast prodrug in the brain ([3]; IV 10 mg/kg) |
| --- | --- | --- | --- | --- | --- | --- | --- |
| Cl.[H]/N=C(/NC(=O)CCCCCCC/C=C\CCCCCCCC)N(CC(=O)OCCCCCCC)C([2H])([2H])[2H] [Compound 2, (Z)-heptyl 2-(1-trideuteriomethyl-3-oleoylguanidino)acetate Hydrochloride] | yes | no | BQL | – | – | – | – |
| Cl.[2H]C([2H])([2H])N(CC(=O)OCC)C(=N)NC(=O)CCCCCCCCCC [Compound 8] | – | – | – | predominantly creatinine cyclization | predominantly cyclized into creatinine | BQL | – |
| Cl.[2H]C([2H])([2H])N(CC(=O)OCCCCCCC)C(=N)NC(=O)CCCCCCCCCCCC [Compound 11] | yes | no | BQL | – | – | – | BQL |
